{
  "source": "patent US20260159536A1",
  "about": "“AKR1C3-ACTIVATED DNA ALKYLATING AGENT, AND MEDICAL APPLICATION THEREOF” (ASCENTAWITS PHARMACEUTICALS, LTD., priority 2021, published 2026)",
  "system": "HuPrime model LI6643 human liver cancer",
  "assay": "In vivo pharmacodynamics, liver cancer LI6643 PDX model (Compound A, Sorafenib; section 4.8)",
  "parameters": "species or system BALB/c nude mice",
  "key": {"[1]": {"conditions": "1.25 mg/kg, QDx5, 2 days off, 2 weeks off, QDx5, i.p., Day 35"}, "[2]": {"conditions": "2.5 mg/kg, QDx5, 2 days off, 2 weeks off, QDx5, i.p., Day 35"}, "[3]": {"conditions": "5 mg/kg, QDx5, 2 days off, 2 weeks off, QDx5, i.p., Day 35"}, "[4]": {"conditions": "10 mg/kg, QWx2, 1 week off, QWx2, i.v., Day 35"}},
  "experimental": "Experiment Instruction: BALB/c nude mice were subcutaneously inoculated with HuPrime® model LI6643 tumor blocks to establish a subcutaneous transplantation tumor model of human liver cancer. […] The efficacy was evaluated according to the relative tumor inhibition rate TGI (%), and the safety was evaluated according to the change in body weight and the death of the animals.",
  "data": [
    {"smiles": "O=[N+]([O-])c1ccc(C(OP(=O)(N2CC2)N2CC2)C(F)(F)F)cc1Oc1ccc(-c2ccc(F)cc2)c(F)c1", "note": "(racemic) [Compound A]", "values": [
      {"measurement": "Tumor volume", "setting": "1.25 mg/kg i.p., Day 0", "result": 126.02, "unit": "mm^3"},
      {"measurement": "Tumor volume", "setting": "1.25 mg/kg i.p., Day 4", "result": 181.97, "unit": "mm^3"},
      {"measurement": "Tumor volume", "setting": "1.25 mg/kg i.p., Day 7", "result": 270.85, "unit": "mm^3"},
      {"measurement": "Tumor volume", "setting": "1.25 mg/kg i.p., Day 11", "result": 264.04, "unit": "mm^3"},
      {"measurement": "Tumor volume", "setting": "1.25 mg/kg i.p., Day 14", "result": 197.40, "unit": "mm^3"},
      {"measurement": "Tumor volume", "setting": "1.25 mg/kg i.p., Day 18", "result": 177.65, "unit": "mm^3"},
      {"measurement": "Tumor volume", "setting": "1.25 mg/kg i.p., Day 21", "result": 102.13, "unit": "mm^3"},
      {"measurement": "Tumor volume", "setting": "1.25 mg/kg i.p., Day 25", "result": 90.41, "unit": "mm^3"},
      {"measurement": "Tumor volume", "setting": "1.25 mg/kg i.p., Day 28", "result": 73.75, "unit": "mm^3"},
      {"measurement": "Tumor volume", "setting": "1.25 mg/kg i.p., Day 32", "result": 49.39, "unit": "mm^3"},
      {"measurement": "Tumor volume", "setting": "1.25 mg/kg i.p., Day 35", "result": 35.61, "unit": "mm^3"},
      {"measurement": "Tumor volume", "setting": "1.25 mg/kg i.p., Day 39", "result": 31.79, "unit": "mm^3"},
      {"measurement": "Tumor volume", "setting": "1.25 mg/kg i.p., Day 42", "result": 25.59, "unit": "mm^3"},
      {"measurement": "Tumor volume", "setting": "1.25 mg/kg i.p., Day 46", "result": 19.34, "unit": "mm^3"},
      {"measurement": "Tumor volume", "setting": "1.25 mg/kg i.p., Day 49", "result": 12.51, "unit": "mm^3"},
      {"measurement": "Tumor volume", "setting": "1.25 mg/kg i.p., Day 53", "result": 9.04, "unit": "mm^3"},
      {"measurement": "Relative tumor volume (x ± S)", "setting": "[1]", "result": "0.27 ± 0.14"},
      {"measurement": "T/C (%)", "setting": "[1]", "result": 1.89, "unit": "%"},
      {"measurement": "TGI (%)", "setting": "[1]", "result": 98.11, "unit": "%"},
      {"measurement": "Tumor volume (x ± S)", "setting": "[1]", "result": "35.61 ± 18.63"},
      {"measurement": "Tumor volume", "setting": "2.5 mg/kg i.p., Day 0", "result": 125.92, "unit": "mm^3"},
      {"measurement": "Tumor volume", "setting": "2.5 mg/kg i.p., Day 4", "result": 199.12, "unit": "mm^3"},
      {"measurement": "Tumor volume", "setting": "2.5 mg/kg i.p., Day 7", "result": 278.32, "unit": "mm^3"},
      {"measurement": "Tumor volume", "setting": "2.5 mg/kg i.p., Day 11", "result": 191.74, "unit": "mm^3"},
      {"measurement": "Tumor volume", "setting": "2.5 mg/kg i.p., Day 14", "result": 167.14, "unit": "mm^3"},
      {"measurement": "Tumor volume", "setting": "2.5 mg/kg i.p., Day 18", "result": 154.33, "unit": "mm^3"},
      {"measurement": "Tumor volume", "setting": "2.5 mg/kg i.p., Day 21", "result": 100.94, "unit": "mm^3"},
      {"measurement": "Tumor volume", "setting": "2.5 mg/kg i.p., Day 25", "result": 103.28, "unit": "mm^3"},
      {"measurement": "Tumor volume", "setting": "2.5 mg/kg i.p., Day 28", "result": 93.12, "unit": "mm^3"},
      {"measurement": "Tumor volume", "setting": "2.5 mg/kg i.p., Day 32", "result": 74.85, "unit": "mm^3"},
      {"measurement": "Tumor volume", "setting": "2.5 mg/kg i.p., Day 35", "result": 56.62, "unit": "mm^3"},
      {"measurement": "Tumor volume", "setting": "2.5 mg/kg i.p., Day 39", "result": 39.85, "unit": "mm^3"},
      {"measurement": "Tumor volume", "setting": "2.5 mg/kg i.p., Day 42", "result": 27.34, "unit": "mm^3"},
      {"measurement": "Tumor volume", "setting": "2.5 mg/kg i.p., Day 46", "result": 14.83, "unit": "mm^3"},
      {"measurement": "Tumor volume", "setting": "2.5 mg/kg i.p., Day 49", "result": 12.00, "unit": "mm^3"},
      {"measurement": "Tumor volume", "setting": "2.5 mg/kg i.p., Day 53", "result": 12.86, "unit": "mm^3"},
      {"measurement": "Relative tumor volume (x ± S)", "setting": "[2]", "result": "0.45 ± 0.07"},
      {"measurement": "T/C (%)", "setting": "[2]", "result": 3.19, "unit": "%"},
      {"measurement": "TGI (%)", "setting": "[2]", "result": 96.81, "unit": "%"},
      {"measurement": "Tumor volume (x ± S)", "setting": "[2]", "result": "56.62 ± 9.62"},
      {"measurement": "Tumor volume", "setting": "5 mg/kg i.p., Day 0", "result": 126.93, "unit": "mm^3"},
      {"measurement": "Tumor volume", "setting": "5 mg/kg i.p., Day 4", "result": 178.97, "unit": "mm^3"},
      {"measurement": "Tumor volume", "setting": "5 mg/kg i.p., Day 7", "result": 214.95, "unit": "mm^3"},
      {"measurement": "Tumor volume", "setting": "5 mg/kg i.p., Day 11", "result": 132.13, "unit": "mm^3"},
      {"measurement": "Tumor volume", "setting": "5 mg/kg i.p., Day 14", "result": 63.74, "unit": "mm^3"},
      {"measurement": "Tumor volume", "setting": "5 mg/kg i.p., Day 18", "result": 60.36, "unit": "mm^3"},
      {"measurement": "Tumor volume", "setting": "5 mg/kg i.p., Day 21", "result": 40.93, "unit": "mm^3"},
      {"measurement": "Tumor volume", "setting": "5 mg/kg i.p., Day 25", "result": 24.91, "unit": "mm^3"},
      {"measurement": "Tumor volume", "setting": "5 mg/kg i.p., Day 28", "result": 21.48, "unit": "mm^3"},
      {"measurement": "Tumor volume", "setting": "5 mg/kg i.p., Day 32", "result": 8.71, "unit": "mm^3"},
      {"measurement": "Tumor volume", "setting": "5 mg/kg i.p., Day 35", "result": 7.12, "unit": "mm^3"},
      {"measurement": "Tumor volume", "setting": "5 mg/kg i.p., Day 39", "result": 6.77, "unit": "mm^3"},
      {"measurement": "Tumor volume", "setting": "5 mg/kg i.p., Day 42", "result": 5.57, "unit": "mm^3"},
      {"measurement": "Tumor volume", "setting": "5 mg/kg i.p., Day 46", "result": 4.27, "unit": "mm^3"},
      {"measurement": "Tumor volume", "setting": "5 mg/kg i.p., Day 49", "result": 4.12, "unit": "mm^3"},
      {"measurement": "Tumor volume", "setting": "5 mg/kg i.p., Day 53", "result": 3.81, "unit": "mm^3"},
      {"measurement": "Relative tumor volume (x ± S)", "setting": "[3]", "result": "0.05 ± 0.05"},
      {"measurement": "T/C (%)", "setting": "[3]", "result": 0.34, "unit": "%"},
      {"measurement": "TGI (%)", "setting": "[3]", "result": 99.66, "unit": "%"},
      {"measurement": "Tumor volume (x ± S)", "setting": "[3]", "result": "7.12 ± 7.12"},
      {"measurement": "Tumor volume", "setting": "10 mg/kg i.v., Day 0", "result": 126.11, "unit": "mm^3"},
      {"measurement": "Tumor volume", "setting": "10 mg/kg i.v., Day 4", "result": 160.85, "unit": "mm^3"},
      {"measurement": "Tumor volume", "setting": "10 mg/kg i.v., Day 7", "result": 216.99, "unit": "mm^3"},
      {"measurement": "Tumor volume", "setting": "10 mg/kg i.v., Day 11", "result": 94.21, "unit": "mm^3"},
      {"measurement": "Tumor volume", "setting": "10 mg/kg i.v., Day 14", "result": 72.94, "unit": "mm^3"},
      {"measurement": "Tumor volume", "setting": "10 mg/kg i.v., Day 18", "result": 59.48, "unit": "mm^3"},
      {"measurement": "Tumor volume", "setting": "10 mg/kg i.v., Day 21", "result": 25.80, "unit": "mm^3"},
      {"measurement": "Tumor volume", "setting": "10 mg/kg i.v., Day 25", "result": 21.28, "unit": "mm^3"},
      {"measurement": "Tumor volume", "setting": "10 mg/kg i.v., Day 28", "result": 10.93, "unit": "mm^3"},
      {"measurement": "Tumor volume", "setting": "10 mg/kg i.v., Day 32", "result": 7.11, "unit": "mm^3"},
      {"measurement": "Tumor volume", "setting": "10 mg/kg i.v., Day 35", "result": 0.00, "unit": "mm^3"},
      {"measurement": "Tumor volume", "setting": "10 mg/kg i.v., Day 39", "result": 0.00, "unit": "mm^3"},
      {"measurement": "Tumor volume", "setting": "10 mg/kg i.v., Day 42", "result": 0.00, "unit": "mm^3"},
      {"measurement": "Tumor volume", "setting": "10 mg/kg i.v., Day 46", "result": 0.00, "unit": "mm^3"},
      {"measurement": "Tumor volume", "setting": "10 mg/kg i.v., Day 49", "result": 0.00, "unit": "mm^3"},
      {"measurement": "Tumor volume", "setting": "10 mg/kg i.v., Day 53", "result": 0.00, "unit": "mm^3"},
      {"measurement": "Relative tumor volume (x ± S)", "setting": "[4]", "result": "0 ± 0"},
      {"measurement": "T/C (%)", "setting": "[4]", "result": 0.00, "unit": "%"},
      {"measurement": "TGI (%)", "setting": "[4]", "result": 100.00, "unit": "%"},
      {"measurement": "Tumor volume (x ± S)", "setting": "[4]", "result": "0 ± 0"}
    ]}
  ]
}
